Measurements as given in patent publication US20230085307A1, “PYRIDAZINONE COMPOUND AND HERBICIDE” (NISSAN CHEMICAL CORPORATION, priority 2019, published 2023).

Legend:
barnyard grass [1] = experiment: Test Example 3: herbicidal effect by foliage application, Wagner pot (Table 18, symbol H); format: in vivo, barnyard grass (Echinochloa crus-galli); settings: 320 g/ha
Summary of the method: (§1)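 Plants were sown in alluvial soil held under 0.1–0.5 cm standing water and grown 14 days in a greenhouse at 25–30 °C. An emulsifiable formulation, water-diluted to the set dose, was then sprayed onto the foliage, and effects were scored three weeks later using previously defined criteria.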

Chinese sprangletop = experiment: Test Example 3: herbicidal effect by foliage application, Wagner pot (Table 18, symbol D); format: in vivo, chinese sprangletop (Leptochloa chinensis); settings: 320 g/ha
Summary of the method: as §1

rice flat sedge = experiment: Test Example 3: herbicidal effect by foliage application, Wagner pot (Table 18, symbol E); format: in vivo, rice flat sedge (Cyperus iria); settings: 320 g/ha
Summary of the method: as §1

southern crabgrass [2] = experiment: Test Example 4: herbicidal effect by soil treatment (Table 19, symbol F); format: in vivo, southern crabgrass (Digitaria ciliaris)
Summary of the method: (§2)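 Three weeks of greenhouse growth at 25° C. to 30° C. followed a uniform surface spray of water-diluted emulsion at a predetermined herbicide amount. Seeds had been sown beforehand under about 1.5 cm of sterilized diluvial soil. Grading followed criteria set out in an earlier test.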

green foxtail [3] = experiment: Test Example 4: herbicidal effect by soil treatment (Table 19, symbol G); format: in vivo, green foxtail (Setaria viridis)
Summary of the method: as §2

barnyard grass [4] = experiment: Test Example 4: herbicidal effect by soil treatment (Table 19, symbol H); format: in vivo, barnyard grass (Echinochloa crus-galli)
Summary of the method: as §2

wild oat [5] = experiment: Test Example 4: herbicidal effect by soil treatment (Table 19, symbol I); format: in vivo, wild oat (Avena fatua)
Summary of the method: as §2

blackgrass [6] = experiment: Test Example 4: herbicidal effect by soil treatment (Table 19, symbol J); format: in vivo, blackgrass (Alopecurus myosuroides)
Summary of the method: as §2

Italian ryegrass [7] = experiment: Test Example 4: herbicidal effect by soil treatment (Table 19, symbol K); format: in vivo, Italian ryegrass (Lolium multiflorum)
Summary of the method: as §2

windgrass [8] = experiment: Test Example 4: herbicidal effect by soil treatment (Table 19, symbol L); format: in vivo, windgrass (Apera spica-venti)
Summary of the method: as §2

velvetleaf [9] = experiment: Test Example 4: herbicidal effect by soil treatment (Table 19, symbol M); format: in vivo, velvetleaf (Abutilon theophrasti)
Summary of the method: as §2

lambsquarters [10] = experiment: Test Example 4: herbicidal effect by soil treatment (Table 19, symbol O); format: in vivo, lambsquarters (Chenopodium album)
Summary of the method: as §2

chickweed [11] = experiment: Test Example 4: herbicidal effect by soil treatment (Table 19, symbol P); format: in vivo, common chickweed (Stellaria media)
Summary of the method: as §2

false cleavers = experiment: Test Example 4: herbicidal effect by soil treatment (Table 19, symbol Q); format: in vivo, false cleavers (Galium spurium)
Summary of the method: as §2

persian speedwell [12] = experiment: Test Example 4: herbicidal effect by soil treatment (Table 19, symbol R); format: in vivo, Persian speedwell (Veronica persica)
Summary of the method: as §2

southern crabgrass [13] = experiment: Test Example 5: herbicidal effect by foliage application, plastic box (Table 20, symbol F); format: in vivo, southern crabgrass (Digitaria ciliaris)
Summary of the method: (§3)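 Plants sown in sterilized diluvial soil and grown 14 days in a greenhouse at 25° C to 30° C, then sprayed on the foliage with the compound's emulsion diluted in water to a predetermined herbicide amount. Injury to weeds and crops scored three weeks after application on a visual rating scale.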

green foxtail [14] = experiment: Test Example 5: herbicidal effect by foliage application, plastic box (Table 20, symbol G); format: in vivo, green foxtail (Setaria viridis)
Summary of the method: as §3

barnyard grass [15] = experiment: Test Example 5: herbicidal effect by foliage application, plastic box (Table 20, symbol H); format: in vivo, barnyard grass (Echinochloa crus-galli)
Summary of the method: as §3

wild oat [16] = experiment: Test Example 5: herbicidal effect by foliage application, plastic box (Table 20, symbol I); format: in vivo, wild oat (Avena fatua)
Summary of the method: as §3

blackgrass [17] = experiment: Test Example 5: herbicidal effect by foliage application, plastic box (Table 20, symbol J); format: in vivo, blackgrass (Alopecurus myosuroides)
Summary of the method: as §3

Italian ryegrass [18] = experiment: Test Example 5: herbicidal effect by foliage application, plastic box (Table 20, symbol K); format: in vivo, Italian ryegrass (Lolium multiflorum)
Summary of the method: as §3

windgrass [19] = experiment: Test Example 5: herbicidal effect by foliage application, plastic box (Table 20, symbol L); format: in vivo, windgrass (Apera spica-venti); settings: foliage application, AAH 320 g/ha, three weeks after application
Summary of the method: as §3

velvetleaf [20] = experiment: Test Example 5: herbicidal effect by foliage application, plastic box (Table 20, symbol M); format: in vivo, velvetleaf (Abutilon theophrasti)
Summary of the method: as §3

redroot pigweed [21] = experiment: Test Example 5: herbicidal effect by foliage application, plastic box (Table 20, symbol N); format: in vivo, redroot pigweed (Amaranthus retroflexus)
Summary of the method: as §3

lambsquarters [22] = experiment: Test Example 5: herbicidal effect by foliage application, plastic box (Table 20, symbol O); format: in vivo, lambsquarters (Chenopodium album)
Summary of the method: as §3

chickweed [23] = experiment: Test Example 5: herbicidal effect by foliage application, plastic box (Table 20, symbol P); format: in vivo, common chickweed (Stellaria media)
Summary of the method: as §3

persian speedwell [24] = experiment: Test Example 5: herbicidal effect by foliage application, plastic box (Table 20, symbol R); format: in vivo, Persian speedwell (Veronica persica)
Summary of the method: as §3

redroot pigweed [25] = experiment: Test Example 4: herbicidal effect by soil treatment (Table 19, symbol N); format: in vivo, redroot pigweed (Amaranthus retroflexus); settings: amount of applied herbicide 320 g/ha
Summary of the method: as §2

[26] = foliage application, AAH 320 g/ha, three weeks after application
[27] = amount of applied herbicide 320 g/ha
[28] = 320 g/ha, foliage application after 14-day growth, evaluated three weeks after application

CCCC(=O)Oc1c(OC)nn(C)c(=O)c1-c1c(-c2ccc(F)c(F)c2)sc2ccccc12 [1-173]
herbicidal effect on H (barnyard grass), rating 0-5 (barnyard grass [1]): 1 (Herbicidal rate of 5% or more and less than 20%) | herbicidal effect on D (Chinese sprangletop), rating 0-5 (Chinese sprangletop): 0 (Herbicidal rate of 5% or less (almost no effect)) | herbicidal effect on E (rice flat sedge), rating 0-5 (rice flat sedge): 5 (Herbicidal rate of 90% or more (almost completely withered)) | F: southern crabgrass, herbicidal effect rating (southern crabgrass [2]; AAH 320 g/ha): 0 (Herbicidal rate of 5% or less (almost no effect)) | G: green foxtail, herbicidal effect rating (green foxtail [3]; AAH 320 g/ha): 5 (Herbicidal rate of 90% or more (almost completely withered)) | H: barnyard grass, herbicidal effect rating (barnyard grass [4]; AAH 320 g/ha): 0 (Herbicidal rate of 5% or less (almost no effect)) | I: wild oat, herbicidal effect rating (wild oat [5]; AAH 320 g/ha): 0 (Herbicidal rate of 5% or less (almost no effect)) | J: blackgrass, herbicidal effect rating (blackgrass [6]; AAH 320 g/ha): 0 (Herbicidal rate of 5% or less (almost no effect)) | K: Italian ryegrass, herbicidal effect rating (Italian ryegrass [7]; AAH 320 g/ha): 2 (Herbicidal rate of 20% or more and less than 40%) | L: windgrass, herbicidal effect rating (windgrass [8]; AAH 320 g/ha): 0 (Herbicidal rate of 5% or less (almost no effect)) | M: velvetleaf, herbicidal effect rating (velvetleaf [9]; AAH 320 g/ha): 4 (Herbicidal rate of 70% or more and less than 90%) | O: lambsquarters, herbicidal effect rating (lambsquarters [10]; AAH 320 g/ha): 5 (Herbicidal rate of 90% or more (almost completely withered)) | P: chickweed, herbicidal effect rating (chickweed [11]; AAH 320 g/ha): 5 (Herbicidal rate of 90% or more (almost completely withered)) | Q: false cleavers, herbicidal effect rating (false cleavers; AAH 320 g/ha): 3 (Herbicidal rate of 40% or more and less than 70%) | R: persian speedwell, herbicidal effect rating (persian speedwell [12]; AAH 320 g/ha): 5 (Herbicidal rate of 90% or more (almost completely withered)) | F: southern crabgrass, herbicidal effect (southern crabgrass [13]; [26]): 0 (Herbicidal rate of 5% or less (almost no effect)) | G: green foxtail, herbicidal effect (green foxtail [14]; [26]): 3 (Herbicidal rate of 40% or more and less than 70%) | H: barnyard grass, herbicidal effect (barnyard grass [15]; [26]): 0 (Herbicidal rate of 5% or less (almost no effect)) | I: wild oat, herbicidal effect (wild oat [16]; [26]): 1 (Herbicidal rate of 5% or more and less than 20%) | J: blackgrass, herbicidal effect (blackgrass [17]; [26]): 1 (Herbicidal rate of 5% or more and less than 20%) | K: Italian ryegrass, herbicidal effect (Italian ryegrass [18]; [26]): 4 (Herbicidal rate of 70% or more and less than 90%) | L: windgrass, herbicidal effect (windgrass [19]): 0 (Herbicidal rate of 5% or less (almost no effect)) | M: velvetleaf, herbicidal effect (velvetleaf [20]; [26]): 5 (Herbicidal rate of 90% or more (almost completely withered)) | N: redroot pigweed, herbicidal effect (redroot pigweed [21]; [26]): 5 (Herbicidal rate of 90% or more (almost completely withered)) | O: lambsquarters, herbicidal effect (lambsquarters [22]; [26]): 5 (Herbicidal rate of 90% or more (almost completely withered)) | P: chickweed, herbicidal effect (chickweed [23]; [26]): 5 (Herbicidal rate of 90% or more (almost completely withered)) | R: persian speedwell, herbicidal effect (persian speedwell [24]; [26]): 5 (Herbicidal rate of 90% or more (almost completely withered))

COc1ccc(-c2sc3c(F)cccc3c2-c2c(O)c(C)nn(C)c2=O)cc1 [4-005]
herbicidal effect on barnyard grass (H) (barnyard grass [1]): 4 (Herbicidal rate of 70% or more and less than 90%) | herbicidal effect on Chinese sprangletop (D) (Chinese sprangletop): 3 (Herbicidal rate of 40% or more and less than 70%) | herbicidal effect on rice flat sedge (E) (rice flat sedge): 5 (Herbicidal rate of 90% or more (almost completely withered)) | Herbicidal effect by soil treatment, F: southern crabgrass (southern crabgrass [2]; [27]): 0 (Herbicidal rate of 5% or less (almost no effect)) | Herbicidal effect by soil treatment, G: green foxtail (green foxtail [3]; [27]): 5 (Herbicidal rate of 90% or more (almost completely withered)) | Herbicidal effect by soil treatment, H: barnyard grass (barnyard grass [4]; [27]): 4 (Herbicidal rate of 70% or more and less than 90%) | Herbicidal effect by soil treatment, I: wild oat (wild oat [5]; [27]): 0 (Herbicidal rate of 5% or less (almost no effect)) | Herbicidal effect by soil treatment, J: blackgrass (blackgrass [6]; [27]): 0 (Herbicidal rate of 5% or less (almost no effect)) | Herbicidal effect by soil treatment, K: Italian ryegrass (Italian ryegrass [7]; [27]): 0 (Herbicidal rate of 5% or less (almost no effect)) | Herbicidal effect by soil treatment, L: windgrass (windgrass [8]; [27]): 0 (Herbicidal rate of 5% or less (almost no effect)) | Herbicidal effect by soil treatment, M: velvetleaf (velvetleaf [9]; [27]): 0 (Herbicidal rate of 5% or less (almost no effect)) | Herbicidal effect by soil treatment, N: redroot pigweed (redroot pigweed [25]): 0 (Herbicidal rate of 5% or less (almost no effect)) | Herbicidal effect by soil treatment, O: lambsquarters (lambsquarters [10]; [27]): 4 (Herbicidal rate of 70% or more and less than 90%) | Herbicidal effect by soil treatment, P: chickweed (chickweed [11]; [27]): 4 (Herbicidal rate of 70% or more and less than 90%) | Herbicidal effect by soil treatment, Q: false cleavers (false cleavers; [27]): 0 (Herbicidal rate of 5% or less (almost no effect)) | Herbicidal effect by soil treatment, R: persian speedwell (persian speedwell [12]; [27]): 5 (Herbicidal rate of 90% or more (almost completely withered)) | herbicidal effect on F: southern crabgrass (evaluation grade 0-5) (southern crabgrass [13]; [28]): 0 (Herbicidal rate of 5% or less (almost no effect)) | herbicidal effect on G: green foxtail (evaluation grade 0-5) (green foxtail [14]; [28]): 5 (Herbicidal rate of 90% or more (almost completely withered)) | herbicidal effect on H: barnyard grass (evaluation grade 0-5) (barnyard grass [15]; [28]): 3 (Herbicidal rate of 40% or more and less than 70%) | herbicidal effect on I: wild oat (evaluation grade 0-5) (wild oat [16]; [28]): 0 (Herbicidal rate of 5% or less (almost no effect)) | herbicidal effect on J: blackgrass (evaluation grade 0-5) (blackgrass [17]; [28]): 0 (Herbicidal rate of 5% or less (almost no effect)) | herbicidal effect on K: Italian ryegrass (evaluation grade 0-5) (Italian ryegrass [18]; [28]): 4 (Herbicidal rate of 70% or more and less than 90%) | herbicidal effect on M: velvetleaf (evaluation grade 0-5) (velvetleaf [20]; [28]): 3 (Herbicidal rate of 40% or more and less than 70%) | herbicidal effect on N: redroot pigweed (evaluation grade 0-5) (redroot pigweed [21]; [28]): 3 (Herbicidal rate of 40% or more and less than 70%) | herbicidal effect on O: lambsquarters (evaluation grade 0-5) (lambsquarters [22]; [28]): 3 (Herbicidal rate of 40% or more and less than 70%) | herbicidal effect on P: chickweed (evaluation grade 0-5) (chickweed [23]; [28]): 5 (Herbicidal rate of 90% or more (almost completely withered)) | herbicidal effect on R: persian speedwell (evaluation grade 0-5) (persian speedwell [24]; [28]): 5 (Herbicidal rate of 90% or more (almost completely withered))
